Earlier results in patent US7235589B2, “Method of treating patients undergoing kidney dialysis” (Bio Numerik Pharmaceuticals, Inc., priority 2004, dated 2007).

What was measured:
[1] = accepted value
mice = conditions: intravenously, doses higher than the accepted oral LD50 for common table salt (3750 mg/kg)
dogs = conditions: intravenously, doses higher than the accepted oral LD50 for common table salt (3750 mg/kg)
humans = conditions: doses exceeding 40 g/m^2

SMILES	oral LD50 [1] [mg/kg]	adverse effects (mice)	adverse effects (dogs)	adverse effects (humans)
[Cl-].[Na+] [common table salt]	3750	–	–	–
O=S(=O)([O-])CCSSCCS(=O)(=O)[O-].[Na+].[Na+] [dimesna, disodium 2,2′-dithiobis ethane sulfonate]	–	no adverse effects	no adverse effects	no adverse effects
